Source: US12495798B2, “Nicotinamide compound and herbicidal composition comprising compound” (KOREA RESEARCH INSTITUTE OF CHEMICAL TECHNOLOGY, priority 2019, dated 2025)

Tests used:
Assay in all cases: Herbicidal activity test against upland field weeds (foliar treatment test)
Format in all cases: in vivo
cocklebur = system: cocklebur; design: key to Foliar treatment herbicidal activity, Cocklebur: 0 (no control); 100 (complete control); conditions: 50 g ai/ha, scale 0-100; for pest or weed control at 50 g/ha: Xanthium strumarium
Procedure: (§1) Experimental Example 1: Herbicidal Activity Test Against Upland Field Weeds (Foliar Treatment Test) Foliar treatment was performed as follows: After filling a square plastic pot having a surface area of 350 cm^2 with horticultural soil, seeds (10˜15 grains) or rootstocks (2 pieces) of 5 kinds of grassy weeds of sorghum, barnyard grass, quack grass, crabgrass, fall panicum, and 5 kinds of broadleaf weeds of black nightshade, indian jointvetch, velvetleaf, cocklebur, bindweed, which had been stored in a low temperature (6° C.), were sown. After growing for a certain period in greenhouse conditions (average temperature 30±5° C., light/dark=14/10 hours), test compound solutions were made by diluting with a preparation solution (including 50% acetone, 0.1% Tween-20) so that the final treatment amount of the test compounds was 50 or 75 g a.i./ha. The prepared test compound solution was used for treating foliage by hand-spraying 14 mL per pot in a fume hood. After the treatment, it was managed under the same greenhouse conditions as above, and after 14 days (after 21 days if necessary), the external symptoms and efficacy were investigated according to the scale of 0 (no control) to 100 (complete control). The results of Table 7 were obtained by evaluating weed control value to the untreated control by conducting visual assessment.

barnyard grass = system: barnyard grass; design: key to Foliar treatment herbicidal activity, barnyard grass: 0 (no control); 100 (complete control); conditions: 50 g ai/ha, scale 0-100; for pest or weed control at 50 g/ha: Echinochloa crus-galli
Procedure: as §1

sorghum = system: sorghum; design: key to Foliar treatment herbicidal activity, Sorghum: 0 (no control); 100 (complete control); conditions: 50 g ai/ha, scale 0-100; for plant injury at 50 g/ha: Sorghum
Procedure: as §1

crabgrass = system: crabgrass; design: key to Foliar treatment herbicidal activity, Crabgrass: 0 (no control); 100 (complete control); conditions: 50 g ai/ha, scale 0-100; for pest or weed control at 50 g/ha: Digitaria sanguinalis
Procedure: as §1

fall panicum = system: fall panicum; design: key to Foliar treatment herbicidal activity, Fall panicum: 0 (no control); 100 (complete control); conditions: 50 g ai/ha, scale 0-100; for pest or weed control at 50 g/ha: Panicum dichotomiflorum
Procedure: as §1

velvetleaf = system: velvetleaf; design: key to Foliar treatment herbicidal activity, velvet leaf: 0 (no control); 100 (complete control); conditions: 50 g ai/ha; for Foliar treatment herbicidal activity, velvet leaf: scale 0-100; for pest or weed control at 50 g/ha: Abutilon theophrasti, scale 0-100, read-out: Foliar treatment herbicidal activity, velvet leaf
Procedure: as §1

quack grass = system: quack grass; design: key to Foliar treatment herbicidal activity, quack grass: 0 (no control); 100 (complete control); conditions: 50 g ai/ha, scale 0-100
Procedure: as §1

bindweed = system: bindweed; design: key to Foliar treatment herbicidal activity, Bindweed: 0 (no control); 100 (complete control); conditions: 50 g ai/ha, scale 0-100
Procedure: as §1

indian jointvetch = system: indian jointvetch; design: key to Foliar treatment herbicidal activity, Indian jointvetch: 0 (no control); 100 (complete control); conditions: 50 g ai/ha, scale 0-100
Procedure: as §1

black nightshade = system: black nightshade; design: key to Foliar treatment herbicidal activity, black nightshade: 0 (no control); 100 (complete control); conditions: 50 g ai/ha, scale 0-100; for pest or weed control at 50 g/ha: Solanum nigrum
Procedure: as §1

SMILES | pest or weed control at 50 g/ha (cocklebur) [%] | Foliar treatment herbicidal activity, barnyard grass (barnyard grass) | Foliar treatment herbicidal activity, Sorghum (sorghum) | Foliar treatment herbicidal activity, Crabgrass (crabgrass) | Foliar treatment herbicidal activity, Fall panicum (fall panicum) | Foliar treatment herbicidal activity, velvet leaf (velvetleaf) | Foliar treatment herbicidal activity, quack grass (quack grass) | Foliar treatment herbicidal activity, Bindweed (bindweed) | Foliar treatment herbicidal activity, Indian jointvetch (indian jointvetch) | pest or weed control at 50 g/ha (black nightshade) [%] | pest or weed control at 50 g/ha (velvetleaf) [%] | pest or weed control at 50 g/ha (bindweed) [%] | pest or weed control at 50 g/ha (indian jointvetch) [%] | pest or weed control at 50 g/ha (barnyard grass) [%] | plant injury at 50 g/ha (sorghum) [%] | pest or weed control at 50 g/ha (crabgrass) [%] | pest or weed control at 50 g/ha (fall panicum) [%] | Foliar treatment herbicidal activity, black nightshade (black nightshade) | Foliar treatment herbicidal activity, Cocklebur (cocklebur)
Cn1nnnc1COc1nc(Cl)ccc1C(=O)Nc1nnnn1C [Compound No. 1-20, 6-chloro-N-(1-methyl-1H-tetrazol-5-yl)-2-((1-methyl-1H-tetrazol-5-yl)methoxy)nicotinamide] | 20 | 0 | 0 | 0 | 0 | 0 | 0 | 0 | 0 | 50 | – | – | – | – | – | – | – | – | –
Cn1nnnc1COc1nc(C(F)(F)F)ccc1C(=O)Nc1nnnn1C(F)F [Compound No. 1-4, N-(1-(difluoromethyl)-1H-tetrazol-5-yl)-2-((1-methyl-1H-tetrazol-5-yl)methoxy)-6-(trifluoromethyl)nicotinamide] | 60 | 0 | 0 | 0 | 0 | – | 0 | – | – | 80 | 20 | 20 | 20 | – | – | – | – | – | –
Cn1nnnc1NC(=O)c1ccc(C(F)(F)F)nc1COCc1nc(OCC(F)(F)F)n(C)n1 [Compound No. 2-130, N-(1-methyl-1H-tetrazol-5-yl)-2-(((1-methyl-5-(2,2,2-trifluoroethoxy)-1H-1,2,4-triazol-3-yl)methoxy)methyl)-6-(trifluoromethyl)nicotinamide] | 60 | – | – | – | – | – | 0 | – | – | 98 | 50 | 70 | 60 | 95 | 30 | 90 | 70 | – | –
Cn1nnnc1COc1nc(C(F)(F)F)cc(Cl)c1C(=O)Nc1nnnn1C [Compound No. 1-13, 4-chloro-N-(1-methyl-1H-tetrazol-5-yl)-2-((1-methyl-1H-tetrazol-5-yl)methoxy)-6-(trifluoromethyl)nicotinamide] | 20 | 0 | 0 | 0 | 0 | 0 | 0 | 0 | 0 | 60 | – | – | – | – | – | – | – | – | –
CN(Cc1nnn(C)n1)Cc1nc(C(F)(F)F)ccc1C(=O)Nc1nnnn1C [Compound No. 2-93, 2-((methyl((2-methyl-2H-tetrazol-5-yl)methyl)amino)methyl)-N-(1-methyl-1H-tetrazol-5-yl)-6-(trifluoromethyl)nicotinamide] | 95 | – | – | – | – | – | 0 | – | – | – | 80 | 50 | 70 | 20 | 20 | 40 | 30 | 100 | –
Cn1nnc(CNc2nc(C(F)(F)F)ccc2C(=O)Nc2nnnn2C)n1 [Compound No. 2-32, N-(1-methyl-1H-tetrazol-5-yl)-2-(((2-methyl-2H-tetrazol-5-yl)methyl)amino)-6-(trifluoromethyl)nicotinamide] | – | 0 | 0 | 0 | 0 | 0 | 0 | 0 | 0 | 40 | – | – | – | – | – | – | – | – | 0
CCN(Cc1nnn(C)n1)Cc1nc(C(F)(F)F)ccc1C(=O)Nc1nnnn1C [Compound No. 2-94, 2-((ethyl((2-methyl-2H-tetrazol-5-yl)methyl)amino)methyl)-N-(1-methyl-1H-tetrazol-5-yl)-6-(trifluoromethyl)nicotinamide] | 60 | 0 | 0 | 0 | 0 | – | 0 | – | – | – | 60 | 30 | 60 | – | – | – | – | 100 | –
CN(C)c1nc(COCc2nc(C(F)(F)F)ccc2C(=O)Nc2nnnn2C)nn1C [Compound No. 2-133, 2-(((5-(dimethylamino)-1-methyl-1H-1,2,4-triazol-3-yl)methoxy)methyl)-N-(1-methyl-1H-tetrazol-5-yl)-6-(trifluoromethyl)nicotinamide] | 95 | – | – | – | – | – | 0 | – | – | – | 80 | 90 | 95 | 90 | 20 | 98 | 80 | 100 | –
Cn1nnnc1NC(=O)c1ccc(C(F)(F)F)nc1COCc1nnn(C(F)F)n1 [Compound No. 2-92, 2-(((2-(difluoromethyl)-2H-tetrazol-5-yl)methoxy)methyl)-N-(1-methyl-1H-tetrazol-5-yl)-6-(trifluoromethyl)nicotinamide] | 70 | 0 | 0 | – | – | – | 0 | – | – | – | 80 | 70 | 70 | – | – | 20 | 40 | 100 | –
Cn1nnnc1NC(=O)c1ccc(C(F)(F)F)nc1COCc1nnnn1C(F)F [Compound No. 1-85, 2-(((1-(difluoromethyl)-1H-tetrazol-5-yl)methoxy)methyl)-N-(1-methyl-1H-tetrazol-5-yl)-6-(trifluoromethyl)nicotinamide] | 90 | 0 | 0 | 0 | – | – | 0 | – | – | – | 20 | 40 | 40 | – | – | – | 40 | – | –
Cn1nnnc1NC(=O)c1ccc(C(F)(F)F)nc1COc1nnnn1C [Compound No. 1-115, N-(1-methyl-1H-tetrazol-5-yl)-2-(((1-methyl-1H-tetrazol-5-yl)oxy)methyl)-6-(trifluoromethyl)nicotinamide] | 80 | – | 0 | 0 | 0 | – | 0 | – | – | 95 | 40 | 80 | 40 | 30 | – | – | – | – | –
